Laboratory results as given in the NIST ThermoML archive (doi:10.1016/j.jct.2005.11.003).

Columns and labels:
[1] = xn = mol fraction of the nth substance listed; conditions: 298.15 K, 101 kPa, Liquid
[2] = excess molar enthalpy (molar enthalpy of mixing); xn = mol fraction of the nth substance listed; conditions: 298.15 K, 101 kPa, Liquid
[3] = 298.15 K; 101.33 kPa; Liquid
[4] = refractive index (Na D-line) (dimensionless); conditions: 298.15 K; 101.33 kPa; Liquid

ClCCCCCCCl [1,6-dichlorohexane] + CCCCOC=O
Conditions	excess molar enthalpy [kcal/mol]	mass density [kg/m3]
[1], x2 = 0.0782	–	1052.81
[1], x2 = 0.1483	–	1042.74
[1], x2 = 0.2157	–	1032.73
[1], x2 = 0.2827	–	1022.46
[1], x2 = 0.3478	–	1012.18
[1], x2 = 0.4104	–	1002.02
[1], x2 = 0.5319	–	981.37
[1], x2 = 0.5893	–	971.18
[1], x2 = 0.6457	–	960.88
[1], x2 = 0.7539	–	940.28
[1], x2 = 0.8053	–	930.03
[1], x2 = 0.9044	–	909.61
[1], x2 = 0.9513	–	899.53
[2], x2 = 0.0701	0.0129	–
[2], x2 = 0.1508	0.0227	–
[2], x2 = 0.2299	0.0298	–
[2], x2 = 0.3026	0.0332	–
[2], x2 = 0.371	0.0338	–
[2], x2 = 0.434	0.0322	–
[2], x2 = 0.491	0.0291	–
[2], x2 = 0.5401	0.0255	–
[2], x2 = 0.5778	0.0221	–
[2], x2 = 0.6131	0.02	–
[2], x2 = 0.6659	0.0173	–
[2], x2 = 0.7195	0.016	–
[2], x2 = 0.7775	0.0137	–
[2], x2 = 0.8372	0.0105	–
[2], x2 = 0.8968	0.00693	–
[2], x2 = 0.9528	0.00313	–

CCCCOC(=O)CCC [butyl butanoate]
Conditions	mass density [kg/m3]	refractive index
[3]	864.84	–
[4]	–	1.404

CCCCOC(C)=O [butyl ethanoate]
Conditions	mass density [kg/m3]	refractive index
[3]	876.4	–
[4]	–	1.3918

CCCCOC=O [butyl methanoate]
Conditions	mass density [kg/m3]	refractive index
[3]	888.17	–
[4]	–	1.387

CCCCOC=O [butyl methanoate] + ClCCCl
Conditions	excess molar enthalpy [kcal/mol]	mass density [kg/m3]
[1], x1 = 0.0423	–	1223.68
[1], x1 = 0.0859	–	1202
[1], x1 = 0.1303	–	1180.75
[1], x1 = 0.1772	–	1159.35
[1], x1 = 0.2251	–	1138.25
[1], x1 = 0.2748	–	1117.45
[1], x1 = 0.3271	–	1096.31
[1], x1 = 0.382	–	1075.28
[1], x1 = 0.4376	–	1054.83
[1], x1 = 0.497	–	1034.05
[1], x1 = 0.5604	–	1012.84
[1], x1 = 0.6255	–	992.02
[1], x1 = 0.6925	–	971.62
[1], x1 = 0.7638	–	950.97
[1], x1 = 0.8379	–	930.45
[1], x1 = 0.9173	–	909.53
[2], x1 = 0.0384	0.00172	–
[2], x1 = 0.0884	0.000765	–
[2], x1 = 0.1406	-0.00378	–
[2], x1 = 0.2002	-0.0103	–
[2], x1 = 0.254	-0.018	–
[2], x1 = 0.3052	-0.026	–
[2], x1 = 0.35	-0.0329	–
[2], x1 = 0.3874	-0.0387	–
[2], x1 = 0.4396	-0.0436	–
[2], x1 = 0.4751	-0.0469	–
[2], x1 = 0.5277	-0.049	–
[2], x1 = 0.5938	-0.0454	–
[2], x1 = 0.6645	-0.0433	–
[2], x1 = 0.741	-0.0382	–
[2], x1 = 0.8303	-0.029	–
[2], x1 = 0.9138	-0.0176	–

CCCCOC(=O)CC [butyl propanoate]
Conditions	mass density [kg/m3]	refractive index
[3]	871.08	–
[4]	–	1.399
